What all share (assay type): cell-based
In one series the target is T1, human opioid μ receptor (Homo sapiens, UniProt P35372).
T1 construct: host or cells: CHO cells
Briefly: Opioid receptor function test (agonist activity, Lance Ultra cAMP kit), μ receptor. The following applies: for Emax: maximum reaction relative to control drug DAMGO taken as 100%. The source says:
(§1) Opioid Receptor Function Test
(§2) Functional activity of the compound provided by the present invention on μ, δ, and κ opioid receptors was examined.
(§3) Method: Using a Lance Ultra cAMP kit (Perkin Elmer), the functional activity was examined by a predetermined method. In evaluation of agonist activity, CHO cells expressing each of human opioid receptors (δ, μ, and κ: accession numbers and catalog numbers are described below) were reacted with a test compound in an assay buffer (1× HBSS, […], pH 7.4, […] isobutylmethylxanthine (IBMX), 7.5% BSA) in the presence of 10 μM forskolin for 30 minutes. Subsequently, a cAMP detection reagent in the kit was added. One hour later, time-resolved fluorescence measurement was performed using an EnVision plate reader (Perkin Elmer). The test compound and each control drug (δ: SNC 80, μ: DAMGO, κ: U-69593) were evaluated in a concentration range of 10^−12 to 10^−5 M. A dose reaction curve of the test compound was determined from a fluorescence value at 665 nm, and an EC50 value and an Emax value were calculated. The Emax value was determined as a ratio of a maximum reaction of the test compound when a maximum reaction of each control drug was taken as 100%.

The target in a further series is T2, human opioid δ receptor (Homo sapiens, UniProt P41143).
T2 construct: host or cells: CHO cells
T2 sequence (P41143 whole entry): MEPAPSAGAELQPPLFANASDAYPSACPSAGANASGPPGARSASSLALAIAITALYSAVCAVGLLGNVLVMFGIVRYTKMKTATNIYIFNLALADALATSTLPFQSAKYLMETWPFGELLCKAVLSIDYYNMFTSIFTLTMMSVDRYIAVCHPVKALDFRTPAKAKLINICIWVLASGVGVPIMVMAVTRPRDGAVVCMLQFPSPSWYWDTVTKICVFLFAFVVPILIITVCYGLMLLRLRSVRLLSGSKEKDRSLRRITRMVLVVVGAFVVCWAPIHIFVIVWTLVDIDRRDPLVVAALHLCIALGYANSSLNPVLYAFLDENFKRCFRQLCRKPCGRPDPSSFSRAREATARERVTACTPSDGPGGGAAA
As to the kind of experiment: Opioid receptor function test (agonist activity, Lance Ultra cAMP kit), δ receptor. The following applies: for Emax: maximum reaction relative to control drug SNC 80 taken as 100%.
Description: as §1, §2, §3

Another series addresses T3, human opioid κ receptor (Homo sapiens, UniProt P41145).
T3 construct: host or cells: CHO cells
Briefly: Opioid receptor function test (agonist activity, Lance Ultra cAMP kit), κ receptor. As to conditions: for Emax: maximum reaction relative to control drug U-69593 taken as 100%.
Description: as §1, §2, §3

For a further series, the target named is T4, hERG channel (Homo sapiens, UniProt Q12809).
T4 construct: host or cells: CHO cells
T4 sequence (Q12809 whole entry): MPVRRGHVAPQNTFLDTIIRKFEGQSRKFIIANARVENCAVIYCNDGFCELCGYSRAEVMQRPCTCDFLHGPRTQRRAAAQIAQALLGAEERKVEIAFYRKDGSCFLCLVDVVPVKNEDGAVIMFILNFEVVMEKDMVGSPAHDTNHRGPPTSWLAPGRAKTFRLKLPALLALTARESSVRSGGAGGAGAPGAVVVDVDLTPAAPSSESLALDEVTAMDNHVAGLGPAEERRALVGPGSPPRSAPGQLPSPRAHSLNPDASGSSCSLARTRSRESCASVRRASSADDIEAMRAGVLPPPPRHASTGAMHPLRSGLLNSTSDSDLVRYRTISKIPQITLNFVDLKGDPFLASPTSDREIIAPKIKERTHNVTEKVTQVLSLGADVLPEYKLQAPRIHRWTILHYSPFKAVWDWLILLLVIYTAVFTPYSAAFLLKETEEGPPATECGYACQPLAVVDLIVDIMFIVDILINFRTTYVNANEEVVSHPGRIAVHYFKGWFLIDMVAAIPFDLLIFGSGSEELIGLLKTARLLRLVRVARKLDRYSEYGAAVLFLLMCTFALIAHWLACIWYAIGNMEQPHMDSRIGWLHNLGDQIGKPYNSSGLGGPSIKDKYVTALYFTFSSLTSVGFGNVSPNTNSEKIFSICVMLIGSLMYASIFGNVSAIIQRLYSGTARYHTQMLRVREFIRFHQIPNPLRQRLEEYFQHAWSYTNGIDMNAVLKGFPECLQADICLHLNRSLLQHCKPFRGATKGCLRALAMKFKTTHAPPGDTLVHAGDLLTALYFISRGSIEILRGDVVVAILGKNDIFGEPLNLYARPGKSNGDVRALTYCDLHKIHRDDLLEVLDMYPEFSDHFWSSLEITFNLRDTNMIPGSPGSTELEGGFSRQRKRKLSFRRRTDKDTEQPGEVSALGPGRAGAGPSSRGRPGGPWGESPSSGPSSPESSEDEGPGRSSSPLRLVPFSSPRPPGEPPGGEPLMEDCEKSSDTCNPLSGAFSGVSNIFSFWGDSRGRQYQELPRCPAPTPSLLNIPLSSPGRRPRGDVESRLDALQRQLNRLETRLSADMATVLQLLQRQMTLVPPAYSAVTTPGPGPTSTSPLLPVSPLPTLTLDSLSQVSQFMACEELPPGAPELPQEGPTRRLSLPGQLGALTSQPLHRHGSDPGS
As to the kind of experiment: hERG potassium channel inhibition test (auto patch clamp). As to conditions: hERG channel stably expressing CHO cells, perfused at room temperature for 5 minutes. On the procedure: Ether-a-Go-Go Related Gene (hERG) Potassium Channel Inhibition Test
A test was performed using hERG channel stably expressing CHO cells (purchased from Channelopathy Foundation) with a Port-a-Patch auto patch clamping device (Nanion Technologies). A membrane potential of the cells was held at −80 mV, and then a test pulse of −50 mV for 1.5 seconds was applied at a frequency of once every 10 seconds following a depolarization pulse of +20 mV for 1.5 seconds. An hERG current was confirmed by a tail current induced by the test pulse. A test compound was dissolved in an extracellular solution ([…] NaCl, 4 mM KCl, 1.82 mM CaCl2, 1 mM MgCl2, 105 mM D(+)-glucose, 10 mM HEPES, pH 7.4) and perfused at room temperature for 5 minutes. An inhibition ratio was determined from a ratio of a tail current value after application of the compound when a maximum tail current value before application of the compound was taken as 100%. For the test, cells having a peak current value of the tail current of 300 pA or more, tail current run-down of less than 10% of a current initial value, and a leak current of less than 200 pA were used.
A general note: The hERG channel carries a current that helps repolarise heart muscle cells.

T3 sequence (P41145 whole entry): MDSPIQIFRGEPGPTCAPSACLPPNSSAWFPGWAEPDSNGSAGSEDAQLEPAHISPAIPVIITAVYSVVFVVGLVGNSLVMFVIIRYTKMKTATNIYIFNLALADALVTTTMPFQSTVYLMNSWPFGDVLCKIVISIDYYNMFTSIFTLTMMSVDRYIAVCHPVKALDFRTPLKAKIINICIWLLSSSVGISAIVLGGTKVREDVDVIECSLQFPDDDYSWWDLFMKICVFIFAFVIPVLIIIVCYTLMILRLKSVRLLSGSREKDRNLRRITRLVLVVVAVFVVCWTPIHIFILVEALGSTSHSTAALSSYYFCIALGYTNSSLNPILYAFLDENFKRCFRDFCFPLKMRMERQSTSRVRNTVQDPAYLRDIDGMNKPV
T1 sequence (P35372 whole entry): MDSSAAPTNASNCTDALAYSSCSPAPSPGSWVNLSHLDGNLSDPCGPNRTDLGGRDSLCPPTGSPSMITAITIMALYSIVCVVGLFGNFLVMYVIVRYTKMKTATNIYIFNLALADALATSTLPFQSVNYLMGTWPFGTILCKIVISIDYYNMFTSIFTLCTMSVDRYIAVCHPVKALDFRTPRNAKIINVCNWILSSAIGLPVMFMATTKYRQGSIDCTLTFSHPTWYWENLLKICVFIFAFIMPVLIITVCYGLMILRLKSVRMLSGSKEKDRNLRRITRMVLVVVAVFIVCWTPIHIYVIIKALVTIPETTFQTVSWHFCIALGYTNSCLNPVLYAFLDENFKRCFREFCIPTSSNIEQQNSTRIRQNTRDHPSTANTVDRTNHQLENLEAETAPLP

Turning to `Cc1c2c(nn1-c1ccccc1)C[C@]13CCN(CC4CC4)[C@H](Cc4ccc(O)cc41)[C@]3(O)C2` [Compound 20, (6R,6aS,11aR)-14-(cyclopropylmethyl)-8-methyl-9-phenyl-5,6,9,11-tetrahydro-6,11a-(epiminoethano)naphtho[2,1-f]indazole-2,6a(7H)-diol], the figures for the EC50 on human opioid μ receptor, on human opioid δ receptor and at human opioid κ receptor were 0.0081 µM, 0.00089 µM and 0.0087 µM, respectively. Also, the Emax – broadly, the maximal effect, on the per cent scale that the assay sets – at human opioid μ receptor is 10%; on human opioid δ receptor, 86%; at human opioid κ receptor, 12%.

As to `Cc1c2c(nn1C1CC1)C[C@]13CCN(CC4CC4)[C@H](Cc4ccc(O)cc41)[C@]3(O)C2` [Compound 83, (6R,6aS,11aR)-9-cyclopropyl-14-(cyclopropylmethyl)-8-methyl-5,6,9,11-tetrahydro-6,11a-(epiminoethano)naphtho[2,1-f]indazole-2,6a(7H)-diol], the EC50 – broadly, the concentration that produces a half-maximal response – on human opioid μ receptor stood at 0.011 µM; at human opioid δ receptor, 0.00013 µM; at human opioid κ receptor, 0.05 µM. The Emax stood at 16% at human opioid μ receptor, 99% on human opioid δ receptor and 30% at human opioid κ receptor.

Regarding `Cc1nn(C(C)C)c2c1C[C@@]1(O)[C@H]3Cc4ccc(O)cc4[C@@]1(CCN3CC1CC1)C2` [Compound 23, (6R,6aS,11aR)-14-(cyclopropylmethyl)-10-isopropyl-8-methyl-5,6,10,11-tetrahydro-6,11a-(epiminoethano)naphtho[2,1-f]indazole-2,6a(7H)-diol], on human opioid δ receptor, a half-maximal effect (EC50) was put at 0.00048 µM and the Emax came out at 95%. In addition, at hERG channel, the “hERG inhibitory effect (tail current inhibition)” value (shortened to “hERG inhibitory effect”) is “only weak inhibitory effect”.

As for `Cc1c2c(nn1C1CCCC1)C[C@]13CCN(CC4CC4)[C@H](Cc4ccc(O)cc41)[C@]3(O)C2` [Compound 87, (6R,6aS,11aR)-9-cyclopentyl-14-(cyclopropylmethyl)-8-methyl-5,6,9,11-tetrahydro-6,11a-(epiminoethano)naphtho[2,1-f]indazole-2,6a(7H)-diol], the EC50 at human opioid μ receptor was 0.028 µM; at human opioid δ receptor, 0.00011 µM; on human opioid κ receptor, 0.059 µM. The Emax at human opioid μ receptor stood at 24%; at human opioid δ receptor, 106%; on human opioid κ receptor, 30%.

As for `Cc1c2c(nn1C1CCN(C)CC1)C[C@]13CCN(CC4CC4)[C@H](Cc4ccc(O)cc41)[C@]3(O)C2` [Compound 92, (6R,6aS,11aR)-14-(cyclopropylmethyl)-8-methyl-9-(1-methylpiperidin-4-yl)-5,6,9,11-tetrahydro-6,11a-(epiminoethano)naphtho[2,1-f]indazole-2,6a(7H)-diol], the EC50 came to 0.052 µM at human opioid μ receptor, 0.00051 µM on human opioid δ receptor and 0.016 µM on human opioid κ receptor. In addition, the Emax came out at 17% on human opioid μ receptor, 103% at human opioid δ receptor and 20% at human opioid κ receptor.

As for `Cc1c2c(nn1C(C)(C)C)C[C@]13CCN(CC4CC4)[C@H](Cc4ccc(O)cc41)[C@]3(O)C2` [Compound 24, (6R,6aS,11aR)-9-(tert-butyl)-14-(cyclopropylmethyl)-8-methyl-5,6,9,11-tetrahydro-6,11a-(epiminoethano)naphtho[2,1-f]indazole-2,6a(7H)-diol], the results for the EC50 on human opioid δ receptor and on human opioid κ receptor were 0.00014 µM and 0.017 µM, respectively. The Emax was found to be 108% on human opioid δ receptor and 23% on human opioid κ receptor. Moreover, the “hERG inhibitory effect” value at hERG channel is on record as “only weak inhibitory effect”.

For the molecule `Cc1nn(-c2ccccc2)c2c1C[C@@]1(O)[C@H]3Cc4ccc(O)cc4[C@@]1(CCN3C)C2` [Compound 61, (6R,6aS,11aR)-8,14-dimethyl-10-phenyl-5,6,10,11-tetrahydro-6,11a-(epiminoethano)naphtho[2,1-f]indazole-2,6a(7H)-diol], the 50% effective concentration (EC50) at human opioid μ receptor worked out at 0.257 µM; at human opioid δ receptor, 0.015 µM; on human opioid κ receptor, 1.03 µM. Further, the Emax was 63% at human opioid μ receptor, 91% at human opioid δ receptor and 14% at human opioid κ receptor.

Consider `Cc1nn(CCO)c2c1C[C@@]1(O)[C@H]3Cc4ccc(O)cc4[C@@]1(CCN3CC1CC1)C2` [Compound 44, (6R,6aS,11aR)-14-(cyclopropylmethyl)-10-(2-hydroxyethyl)-8-methyl-5,6,10,11-tetrahydro-6,11a-(epiminoethano)naphtho[2,1-f]indazole-2,6a(7H)-diol], for which the “hERG inhibitory effect” value at hERG channel is on record as “only weak inhibitory effect”.

Regarding `Cc1c2c(nn1C(C)C)C[C@]13CCN(CC4CC4)[C@H](Cc4ccc(O)cc41)[C@]3(O)C2` [Compound 22, (6R,6aS,11aR)-14-(cyclopropylmethyl)-9-isopropyl methyl-5,6,9,11-tetrahydro-6,11a-(epiminoethano)naphtho[2,1-f]indazole-2,6a(7H)-diol], the EC50 at human opioid μ receptor worked out at 0.015 µM; on human opioid δ receptor, 0.00018 µM; at human opioid κ receptor it was 0.013 µM. Besides, the figures for the Emax at human opioid μ receptor, at human opioid δ receptor and on human opioid κ receptor were 15%, 107% and 35%, respectively. The “hERG inhibitory effect” value on hERG channel is “only weak inhibitory effect”.

The record behind these values is patent publication US20230141198A1, “PYRAZOL[…]” (THE KITASATO INSTITUTE, priority 2019, published 2023).
